Test results taken from patent US6979664B1, “Composition for accelerating seed germination and plant growth” (Bios Agriculture Inc., priority 1998, dated 2005).

Tested on: Zea mays
Assay: early growth (after seedling emergence) of Zea mays
Format: in vivo
Settings: for Leaf area / No. of roots / Root dry wt./plant / Root length / Shoot dry wt./plant / Spent seed dry wt.: 15 DAS
From the text: Plastic pots (7.5 cm dia) were filled with 15 g of autoclaved vermiculite. Seeds of corn (Zea mays—Poaceae), bean (Phaseolus vulgaris—Fabaceae), canola (Brassica napus—Brassicaceae), cucumber (Cucumis sativus—Cucurbitaceae), cantaloupe (Cucumis melo—Cucurbitaceae), cotton (Gossypium sp.—Malvaceae), lettuce (Lactuca sativa—Asteraceae), beet (Beta vulgaris—Chenopodiaceae), and soybean (Glycine max—Fabaceae), were placed at 2.5 cm deep at the rate of 5 or 10 seeds per pot. […] Acetonitrile was included as one of the controls since LCO was purified in this solvent (see Example 3), after 4 days the pots were irrigated with 10 mL of water once every two days. Each treatment had 4 replications in a randomized block design. Pots were placed on a green house bench maintained at 25±2° C. with a day/night cycle 16/8 h and relative humidity of 70%, or in a growth chamber set at 15° C. with a 16:8 day/night cycle. The percent seedling emergence was recorded at 4 days after sowing (DAS). Plant height was recorded from 4 DAS to 15 DAS. Plants were harvested at 15 DAS and leaf area, root length and the number of roots per plant were recorded. The plants were then dissected and placed in paper covers and dried at 90° C. for 24 h and the dry weights of roots, shoots and the spent seeds recorded. The data were analyzed with the Statistical Analysis System version 6.12 (SAS institute Inc. Cary, N.C., USA).

CCCCCCC=CCCCCCCCCCC(=O)NC1C(OC2C(CO)OC(OC3C(CO)OC(OC4C(CO)OC(OC5C(COC6OC(C)C(O)C(O)C6OC)OC(O)C(NC(C)=O)C5O)C(NC(C)=O)C4O)C(NC(C)=O)C3O)C(NC(C)=O)C2O)OC(CO)C(O)C1O (stereo not shown) [LCO, NodBj-V(C18:1Δ11)] was tested, and the “Plant height at 15 DAS” value (LCO 10−^5) was 102.9 c mm, the Leaf area (LCO 10−^5) was 11.7 cd cm^2 and the No. of roots (LCO 10−^5) was 6.8 cd. The Root dry wt./plant (LCO 10−^5) was 75.7 cd mg, the Root length (LCO 10−^5) was 137.0 cd mm and the Shoot dry wt./plant (LCO 10−^5) was 41.6 bcd mg. The “Spent seed dry wt.” value (LCO 10−^5) was 123.5 bc mg, the “Plant height at 15 DAS” value (LCO 10−^6) was 130.4 ab mm and the Leaf area (LCO 10−^6) was 18.2 a cm^2. The No. of roots (LCO 10−^6) was 7.66 abc, the Root dry wt./plant (LCO 10−^6) was 85.1 bc mg and the Root length (LCO 10−^6) was 150.8 bc mm. For the same compound, the Shoot dry wt./plant (LCO 10−^6) was 51.4 b mg, the “Spent seed dry wt.” value (LCO 10−^6) was 90.7 cd mg and the “Plant height at 15 DAS” value (LCO 10−^7) was 130.1 ab mm. The Leaf area (LCO 10−^7) was 15.7 ab cm^2, the No. of roots (LCO 10−^7) was 8.0 ab and the Root dry wt./plant (LCO 10−^7) was 96.5 ab mg. The Root length (LCO 10−^7) was 153.9 b mm, the Shoot dry wt./plant (LCO 10−^7) was 51.6 b mg and the “Spent seed dry wt.” value (LCO 10−^7) was 99.5 cd mg. The “Plant height at 15 DAS” value (LCO 10−^8) was 142.6 a mm, the Leaf area (LCO 10−^8) was 19.3 a cm^2 and the No. of roots (LCO 10−^8) was 8.4 a. For the same compound, the Root dry wt./plant (LCO 10−^8) was 103.4 a mg, the Root length (LCO 10−^8) was 187.0 a mm and the Shoot dry wt./plant (LCO 10−^8) was 66.2 a mg. For the same compound, the “Spent seed dry wt.” value (LCO 10−^8) was 76.3 mg·days, the “Plant height at 15 DAS” value (LCO 10−^9) was 134.7 ab mm and the Leaf area (LCO 10−^9) was 17.0 ab cm^2. The No. of roots (LCO 10−^9) was 7.75 abc, the Root dry wt./plant (LCO 10−^9) was 83.3 bc mg and the Root length (LCO 10−^9) was 144.4 cbd mm. For the same compound, the Shoot dry wt./plant (LCO 10−^9) was 46.8 bc mg, the “Spent seed dry wt.” value (LCO 10−^9) was 93.7 cd mg and the “Plant height at 15 DAS” value (LCO 10−^10) was 127.1 b mm. For the same compound, the Leaf area (LCO 10−^10) was 13.9 bc cm^2, the No. of roots (LCO 10−^10) was 7.95 ab and the Root dry wt./plant (LCO 10−^10) was 89.5 abc mg. The Root length (LCO 10−^10) was 149.1 bc mm, the Shoot dry wt./plant (LCO 10−^10) was 51.4 b mg and the “Spent seed dry wt.” value (LCO 10−^10) was 89.8 cd mg. For the same compound, the “Plant height at 15 DAS” value (LCO 10−^11) was 103.3 mm, the Leaf area (LCO 10−^11) was 8.51 def cm^2 and the No. of roots (LCO 10−^11) was 6.69 cd. The Root dry wt./plant (LCO 10−^11) was 74.6 cd mg, the Root length (LCO 10−^11) was 132.1 d mm and the Shoot dry wt./plant (LCO 10−^11) was 38.0 cde mg. For the same compound, the “Spent seed dry wt.” value (LCO 10−^11) was 115.9 bc mg, the “Plant height at 15 DAS” value (LCO 10−^12) was 98.3 c mm and the Leaf area (LCO 10−^12) was 8.0 def cm^2. The No. of roots (LCO 10−^12) was 7.25, the Root dry wt./plant (LCO 10−^12) was 84.6 bc mg and the Root length (LCO 10−^12) was 137.9 cd mm. For the same compound, the Shoot dry wt./plant (LCO 10−^12) was 40.6 bcde mg, the “Spent seed dry wt.” value (LCO 10−^12) was 105.4 od mg and the “Plant height at 15 DAS” value (LCO 10−^13) was 91.8 cd mm. The Leaf area (LCO 10−^13) was 10.4 cde cm^2, the No. of roots (LCO 10−^13) was 6.7 cd and the Root dry wt./plant (LCO 10−^13) was 85.4 bc mg. For the same compound, the Root length (LCO 10−^13) was 130.9 d mm, the Shoot dry wt./plant (LCO 10−^13) was 43.6 bc mg and the “Spent seed dry wt.” value (LCO 10−^13) was 109.6 cd mg. For the same compound, the “Plant height at 15 DAS” value (LCO 10−^14) was 99.9 c mm, the Leaf area (LCO 10−^14) was 11.2 cde cm^2 and the No. of roots (LCO 10−^14) was 7.36 abc. For the same compound, the Root dry wt./plant (LCO 10−^14) was 90.2 abc mg, the Root length (LCO 10−^14) was 136.8 cd mm and the Shoot dry wt./plant (LCO 10−^14) was 46.6 bc mg. For the same compound, the “Spent seed dry wt.” value (LCO 10−^14) was 102.9 cd mg, the “α-amylase activity in the treated seeds” value (corn seeds) was “dramatic increase” and the “start of seedling emergence after seeding” value (corn, control 3–4 days) was 2 to 3 days. The “LCO concentration of optimum effect” value (early growth of corn (Table 3)) was 10^−8 M.
